Where a name gives a salt, the structure may show the parent alone.
Columns and labels:
[1] = tested on: PCB-490-3 (human epithelioid sarcoma primary culture)
Description: (§1)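 60-agent targeted drug screens (Drug Screen V3 on epithelioid sarcoma cultures PCB490-3/4/5, PCB495, EPS cell lines ESX, VA-ES-BJ, FU-EPS-1 and SkMc myoblasts; PPTI screen v2.1 on human UPS PCB197 and canine UPS S1-12). 384-well plates, 72 h, CellTiter-Glo viability; IC50 by Hill curve fit. 10000 nM = no IC50 achieved (top reported value).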

[2] = tested on: FU-EPS-1
Description: as §1

[3] = tested on: PCB-490-5 (human epithelioid sarcoma primary culture)
Description: as §1

[4] = tested on: SkMc
Description: as §1

[5] = tested on: PCB-495 (human epithelioid sarcoma primary culture)
Description: as §1

[6] = tested on: PCB-490-4 (human epithelioid sarcoma primary culture)
Description: as §1

[7] = tested on: VA-ES-BJ
Description: as §1

[8] = tested on: ESX
Description: as §1

[9] = tested on: U23674 (mouse alveolar rhabdomyosarcoma primary culture);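 further: alveolar rhabdomyosarcoma tumor culture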
[10] = tested on: s1-12 (canine undifferentiated pleomorphic sarcoma culture)
Description: as §1

[11] = tested on: pcb-00197 (human undifferentiated pleomorphic sarcoma culture)
Description: as §1

SMILES	IC50 cell viability [1] [µM]	IC50 cell viability [2] [µM]	IC50 cell viability [3] [µM]	IC50 cell viability [4] [µM]	IC50 cell viability [5] [µM]	IC50 cell viability [6] [µM]	IC50 cell viability [7] [µM]	IC50 cell viability [8] [µM]	IC50 cell viability [9] [µM]	IC50 cell viability [10] [µM]	IC50 cell viability [11] [µM]
COc1ccc(C[C@@H](C)[C@@H](C)Cc2ccc(OC)c(OC)c2)cc1OC [EM1421]	> 10	> 10	> 10	> 10	> 10	> 10	> 10	> 10	–	–	–
O=C(O)c1ccc2c(c1)nc(Nc1cccc(Cl)c1)c1ccncc12 [CX-4945]	> 10	0.14	1.2	1.14	> 10	6.52	> 10	> 10	–	–	–
Nc1nc2c(ncn2COC(CO)CO)c(=O)[nH]1 [Ganciclovir]	> 10	0.02	> 10	> 10	> 10	> 10	> 10	> 10	–	–	–
Cn1cc(NC(=O)c2cc(NC(=O)CNC(=N)N)cn2C)cc1C(=O)NCCC(=N)N [Netropsin Dihydrochloride]	> 10	> 10	> 10	> 10	5.52	> 10	> 10	> 10	–	–	–
Cc1cc(-c2ncc(CC(=O)Nc3ccc(-c4cnccn4)cn3)cc2C)ccn1 [LGK974]	> 10	> 10	> 10	> 10	> 10	> 10	> 10	> 10	–	–	–
Nc1nc(Nc2ccc(S(N)(=O)=O)cc2)nn1C(=S)Nc1c(F)cccc1F [Cdk1/2 inhibitor III]	1.41	> 10	1.1	0.29	0.42	1.02	0.13	0.2	–	–	–
O=c1ncccn1[C@@H]1O[C@H](CO)[C@@H](O)[C@H]1O [Zebularine]	> 10	> 10	> 10	> 10	> 10	> 10	> 10	> 10	–	–	–
O=C1NC(=O)C(c2cnc3ccccn23)=C1c1cn2c3c(cc(F)cc13)CN(C(=O)N1CCCCC1)CC2	> 10	> 10	> 10	0.2	> 10	> 10	> 10	1.52	–	–	–
CC[C@@H]1C(=O)N(C)c2cnc(Nc3ccc(C(=O)N[C@H]4CC[C@H](N5CCN(CC6CC6)CC5)CC4)cc3OC)nc2N1C(C)C [Volasertib]	> 10	0.35	> 10	> 10	6.54	> 10	1.09	6.23	–	–	–
Cc1nc(Nc2ncc(C(=O)Nc3c(C)cccc3Cl)s2)cc(N2CCN(CCO)CC2)n1 [Dasatinib]	1.27	> 10	0.39	0.05	> 10	0.17	> 10	> 10	–	–	–
CC(C)(C)Cn1c(N)nc2ccc(-c3[nH]c(C(C)(C)C)nc3-c3ccc(F)cc3)nc21	> 10	> 10	> 10	> 10	> 10	> 10	> 10	5.07	–	–	–
COCC1(CO)C(=O)C2CCN1CC2 (stereo not given) [APR-246]	> 10	> 10	> 10	> 10	> 10	0.12	> 10	0.13	–	–	–
CC(C)n1c(/C=C/C(O)CC(O)CC(=O)O)c(-c2ccc(F)cc2)c2ccccc21 (stereo not given) [Fluvastatin]	1.32	1.48	1.32	8.73	0.08	4.28	0.1	2.5	–	–	–
Cc1nnc(C(C)C)n1C1C[C@H]2CC[C@@H](C1)N2CC[C@H](NC(=O)C1CCC(F)(F)CC1)c1ccccc1 (stereo in doubt) [Maraviroc]	> 10	> 10	> 10	> 10	> 10	> 10	> 10	> 10	–	–	–
N#CC[C@H](C1CCCC1)n1cc(-c2ncnc3[nH]ccc23)cn1 [Ruxolitinib]	> 10	> 10	> 10	> 10	> 10	> 10	> 10	> 10	–	–	–
Cc1[nH]c2ccccc2c1CCNCc1ccc(/C=C/C(=O)NO)cc1 [Panobinostat]	0.53	0.15	0.11	0.18	0.23	0.17	0.02	0.12	–	–	–
CO[C@H]1C[C@@H]2CC[C@@H](C)[C@@](O)(O2)C(=O)C(=O)N2CCCC[C@H]2C(=O)O[C@H]([C@H](C)C[C@@H]2CC[C@@H](O)[C@H](OC)C2)CC(=O)[C@H](C)/C=C(\C)[C@@H](O)[C@@H](OC)C(=O)[C@H](C)C[C@H](C)/C=C/C=C/C=C/1C [Sirolimus]	> 10	> 10	> 10	0.29	> 10	> 10	> 10	> 10	–	–	–
CS(=O)(=O)c1cccc(CNc2nc(Nc3ccc4c(c3)CCC(=O)N4)ncc2C(F)(F)F)c1	> 10	> 10	> 10	> 10	> 10	> 10	> 10	> 10	–	–	–
CC(C)N(CCCNC(=O)Nc1ccc(C(C)(C)C)cc1)C[C@H]1O[C@@H](n2cc(Br)c3c(N)ncnc32)[C@H](O)[C@@H]1O [SGC0946]	> 10	1.48	> 10	0.1	0.6	> 10	0.49	0.62	–	–	–
CN[C@@H](C)C(=O)N[C@H](C(=O)N1CCC[C@H]1c1nc(C(=O)c2ccc(F)cc2)cs1)C1CCCCC1 [LCL161]	> 10	> 10	> 10	> 10	> 10	> 10	3.15	1.8	–	–	–
Cn1c(=O)n(-c2ccc(C(C)(C)C#N)cc2)c2c3cc(-c4cnc5ccccc5c4)ccc3ncc21 [BEZ235]	1.36	0.14	0.2	0.37	0.43	0.26	0.08	0.02	–	–	–
C[C@@H](Oc1cc(-c2cnn(C3CCNCC3)c2)cnc1N)c1c(Cl)ccc(F)c1Cl [Crizotinib]	5.94	0.94	4.62	0.41	1.31	1.8	0.53	4.37	–	–	–
CC1(C)CCC(c2ccc(Cl)cc2)=C(CN2CCN(c3ccc(C(=O)NS(=O)(=O)c4ccc(N[C@H](CCN5CCOCC5)CSc5ccccc5)c(S(=O)(=O)C(F)(F)F)c4)cc3)CC2)C1 [ABT-263]	> 10	> 10	> 10	> 10	> 10	> 10	> 10	> 10	–	–	–

SMILES	IC50 cell viability [1] [µM]	IC50 cell viability [2] [µM]	IC50 cell viability [3] [µM]	IC50 cell viability [4] [µM]	IC50 cell viability [5] [µM]	IC50 cell viability [6] [µM]	IC50 cell viability [7] [µM]	IC50 cell viability [8] [µM]	IC50 cell viability [9] [µM]	IC50 cell viability [10] [µM]	IC50 cell viability [11] [µM]
COc1cccc(OCCCN)c1-c1cc(Nc2cnc(C#N)cn2)n[nH]1	> 10	> 10	> 10	1.29	3.17	> 10	0.69	0.23	–	–	–
O=C(O)CC[C@H](O)C(=O)O [L-a-Hydroxyglutaric acid]	> 10	> 10	> 10	> 10	> 10	> 10	> 10	> 10	–	–	–
NC(=O)c1ccc(-c2nc(-c3ccccn3)c(-c3ccc4c(c3)OCO4)[nH]2)cc1	–	–	–	–	–	–	–	–	> 10	> 10	> 10
CC[C@H](C)n1cc(C)c2c(C(=O)NCc3c(C)cc(C)[nH]c3=O)cc(-c3ccc(N4CCNCC4)nc3)cc21 [GSK126]	> 10	> 10	> 10	0.44	> 10	> 10	> 10	> 10	–	–	–
CN1CCc2c(c3ccccc3n2Cc2ccc(C(=O)NO)cc2)C1 [Tubastatin A]	> 10	> 10	> 10	> 10	> 10	> 10	> 10	> 10	–	–	–
CCOc1cc2ncc(C#N)c(Nc3ccc(F)c(Cl)c3)c2cc1NC(=O)/C=C/CN(C)C [pelitinib]	–	–	–	–	–	–	–	–	–	0.2	> 10
CN(c1ncccc1CNc1nc(Nc2ccc3c(c2)CC(=O)N3)ncc1C(F)(F)F)S(C)(=O)=O	–	–	–	–	–	–	–	–	–	1.42	4.56
Cn1cnc2c(F)c(Nc3ccc(Br)cc3Cl)c(C(=O)NOCCO)cc21 [selumetinib]	–	–	–	–	–	–	–	–	–	1.55	> 10
CC(C)(C)c1cnc(CSc2cnc(NC(=O)C3CCNCC3)s2)o1 [SNS-032]	–	–	–	–	–	–	–	–	–	0.11	0.78
C[C@@H](Oc1cc(-c2cnn(C3CCNCC3)c2)cnc1N)c1c(Cl)ccc(F)c1Cl [crizotinib]	–	–	–	–	–	–	–	–	–	1.18	1.53
Cn1cc(C2=C(c3cn(C4CCN(Cc5ccccn5)CC4)c4ccccc34)C(=O)NC2=O)c2ccccc21 [enzastaurin]	–	–	–	–	–	–	–	–	–	> 10	> 10
CS(=O)(=O)CCNCc1ccc(-c2ccc3ncnc(Nc4ccc(OCc5cccc(F)c5)c(Cl)c4)c3c2)o1 [lapatinib]	–	–	–	–	–	–	–	–	–	> 10	> 10
Cc1cn(-c2cc(NC(=O)c3ccc(C)c(Nc4nccc(-c5cccnc5)n4)c3)cc(C(F)(F)F)c2)cn1 [Nilotinib]	–	–	–	–	–	–	–	–	–	> 10	> 10
CCCC(=O)[O-].[Na+] [sodium butyrate]	–	–	–	–	–	–	–	–	–	1.57	> 10
CC(C)C[C@H](NC(=O)[C@H](Cc1ccccc1)NC(=O)c1cnccn1)B(O)O [bortezomib]	–	–	–	–	–	–	–	–	–	4.69	4.83
COc1cc2/c(=N/c3ccc(Br)cc3F)nc[nH]c2cc1OCC1CCN(C)CC1 [Vandetanib]	–	–	–	–	–	–	–	–	–	1.24	1.32
CC1=C(/C=C/C(C)=C/C=C/C(C)=C/C(=O)Nc2ccc(O)cc2)C(C)(C)CCC1 [Fenretinide]	–	–	–	–	–	–	–	–	–	1.84	> 10
CCNC(=O)c1noc(-c2cc(C(C)C)c(O)cc2O)c1-c1ccc(CN2CCOCC2)cc1 [AUY922]	–	–	–	–	–	–	–	–	–	0.03	0.4
Cc1nc(Nc2ncc(C(=O)Nc3c(C)cccc3Cl)s2)cc(N2CCN(CCO)CC2)n1 [dasatinib]	–	–	–	–	–	–	–	–	–	0.86	0.14
COc1cc2c(Oc3ccc4[nH]c(C)cc4c3F)ncnc2cc1OCCCN1CCCC1 [cediranib]	–	–	–	–	–	–	–	–	–	> 10	> 10
Cc1cc(Nc2cc(N3CCN(C)CC3)nc(Sc3ccc(NC(=O)C4CC4)cc3)n2)n[nH]1 [tozasertib]	–	–	–	–	–	–	–	–	–	> 10	> 10
C=C1C[C@@H]2CC[C@@]34C[C@H]5O[C@H]6[C@@H](O3)[C@H]3O[C@H](CC[C@@H]3O[C@H]6[C@H]5O4)CC(=O)C[C@@H]3[C@@H](OC)[C@@H](C[C@H](O)CN)O[C@H]3C[C@H]3O[C@@H](CC[C@@H]1O2)C[C@@H](C)C3=C [Eribulin]	–	–	–	–	–	–	–	–	–	1.31	0.01
Cc1ccc(Nc2nccc(N(C)c3ccc4c(C)n(C)nc4c3)n2)cc1S(N)(=O)=O [pazopanib]	–	–	–	–	–	–	–	–	–	> 10	> 10

Reference: the supplement of paper PMC6580486
